Source: patent US20110118298A1, “COMPOSITIONS, KITS, AND METHODS FOR IDENTIFICATION, ASSESSMENT, PREVENTION, AND THERAPY OF CANCER” (INFINITY PHARMACEUTICALS, INC., priority 2009, published 2011)
“Also recorded” adds a separate entry of the source.

Legend:
[1] = tested on: Colo320HSR, NCI-H716, SNU-C1, C2BBe1 xenografts; test: Colorectal xenografts wild type for both KRAS and BRAF; format: in vivo, Nu/Nu mice; settings: 100 mg/kg three times weekly, oral
Experimental: Preparation of a suspension of this solid amorphous dispersion was made by levigating the solid with glycerol with a spatula followed by homogenization in a 1% hydroxyethylcellulose solution in a high speed homogenizer for 10 minutes to provide in vehicle (1% hydroxyethylcellulose, 5% glycerol). The suspension was used to administer 17-AG in the below described in vivo experiments.
In the third set of studies, the Colo320HSR (FIG. 22A), NC1—H716 (FIG. 22B), SNU-C1 (FIG. 22C) and C2BBe1 (FIG. 22D) cell lines were employed all of which are wild type for both KRAS and BRAF. 5-6 week old Nu/Nu mice were implanted subcutaneously with 10×10^6 cells for each cell line used and dosing by oral gavage commenced after tumors had reached approximately 150-200 mm^3 on a dosing schedule of three times weekly (M, W, F) with a suspension of 50% 17-AG in HPMC-AS-HG dispersion in vehicle (1% hydroxyethylcellulose, 5% glycerol) at a dose level of 100 mg/kg 17-AG (IPI-493) as compared to vehicle control.

[2] = tested on: Colo201 (mutant BRAF) xenograft; test: Colo201 xenograft, 17-AG, Irinotecan and combination; format: in vivo, nude mice
Experimental: In the sixth set of studies, subcutaneous xenografts of Colo201 (mutant BRAF) were established by implantation of 10×10^6 cells into the right flank of nude mice. Once tumors reached approximately 100-150 mm^3, animals were randomized into treatment groups and administered either vehicle or a suspension of 50% 17-AG in HPMC-AS-HG dispersion in vehicle (1% hydroxyethylcellulose, 5% glycerol) (100 mg/kg, M-W-F, 3 weeks), Irinotecan (100 mg/kg, Q7D, 3 weeks) or the combination of a suspension of 50% 17-AG in HPMC-AS-HG dispersion in vehicle (1% hydroxyethylcellulose, 5% glycerol) (50 mg/kg, M-W-F) and Irinotecan (75 mg/kg, Q7D) for three weeks, and tumor volume measured twice per week (FIG. 26A; FIG. 26B is a zoomed-in section of FIG. 26A). At the end of the dosing period, animals were monitored for an additional 57 days to follow tumor growth delay. […] Similar results to those described above for the Colo201 model were also observed in two separate colorectal models (HCT-116 and DuDu1, […]) (Experiments 7 and 8).

[3] = tested on: EGFR mutant tumors with T790M resistant clones; test: In vivo model of emerging EGFR TKI resistance (T790M)

CO[C@H]1/C=C\C=C(/C)C(=O)NC2=CC(=O)C(N)=C(C[C@@H](C)C[C@H](OC)[C@H](O)[C@@H](C)/C=C(\C)[C@@H]1OC(N)=O)C2=O [IPI-493, 17-AG]
effect on tumor growth in wild-type kRAS/bRAF models [1]: no detactable effect on TGI; also recorded: did not lead to tumor growth inhibition | effect on tumor growth in wild-type kRAS/bRAF models ([1]; listed as 17-AG): no detectable difference in tumor volume | complete responses (complete disappearance of a palpable tumor) ([2]; combination 50 + 75 mg/kg, single agents 100 mg/kg each): no complete responses | TGI while on drug ([2]; single agent, 17-AG 100 mg/kg M-W-F or Irinotecan 100 mg/kg Q7D, 3 weeks): ~88% | tumor growth inhibition ([3]; compared with gefitinib treatment alone): 61% | animals still on study ([3]; day 45): ~40%
